Experimental data published in PubChem BioAssay (NCI).
Values joined by “and” are separate entries in the source; they are usually repeats but may differ in a detail not shown here. Equal values may be shown once.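 Step 1: Grow cells in 96-well plates. Step 2: Expose to compound for 48 hours at 5 concentrations. Step 3: Interpolate endpoints linearly; if unreached, use highest concentration. GI50: concentration for 50% inhibition of growth. TGI: concentration producing complete growth inhibition.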

Tests used:
Assay in all cases: NCI anticancer screen, dose series, 48 h
EKVX NSCLC = system: EKVX NSCLC
M14 melanoma = system: M14 melanoma
HT29 colon = system: HT29 colon
CAKI-1 renal = system: CAKI-1 renal
K-562 leukemia = system: K-562 leukemia
HL-60(TB) leukemia = system: HL-60(TB) leukemia
LOX IMVI melanoma = system: LOX IMVI melanoma
SNB-75 CNS = system: SNB-75 CNS
OVCAR-5 ovarian = system: OVCAR-5 ovarian
A498 renal = system: A498 renal

Row | SMILES | TGI (EKVX NSCLC) | TGI (M14 melanoma) | TGI (HT29 colon) | TGI (CAKI-1 renal) | TGI (K-562 leukemia) | TGI (HL-60(TB) leukemia) | TGI (LOX IMVI melanoma) | TGI (SNB-75 CNS) | TGI (OVCAR-5 ovarian) | TGI (A498 renal) | GI50 (EKVX NSCLC) | GI50 (M14 melanoma) | GI50 (HT29 colon) | GI50 (CAKI-1 renal) | GI50 (K-562 leukemia) | GI50 (HL-60(TB) leukemia) | GI50 (LOX IMVI melanoma) | GI50 (SNB-75 CNS) | GI50 (OVCAR-5 ovarian) | GI50 (A498 renal)
1 | CC(C)N(C(=O)C12C3C4C1(I)C1C2C3(I)C41C(=O)N(C(C)C)C(C)C)C(C)C (configuration not stated) | > 100 µM | > 100 µM | > 100 µM | > 100 µM | > 63.6 µM | > 61.3 µM | > 60.5 µM | > 100 µM | > 100 µM | > 100 µM | – | – | – | – | – | – | – | – | – | –
2 | O=P1(c2ccccc2)CCCCC1 | > 100 µM | > 100 µM | > 100 µM | – | > 100 µM | > 100 µM | > 100 µM | > 100 µM | > 100 µM | > 100 µM | – | – | – | – | – | – | – | – | – | –
3 | CCN1C(=O)N(CC)C2C1NN=c1s/c(=C3\C(=O)N(CC(C)(C)C)c4ccccc43)c(=O)n12 (configuration not stated) | 54.2 µM | 20.7 µM | 17 µM | 22.2 µM | 20.9 µM | 22.6 µM | 15.4 µM | 24.2 µM | 21.4 µM | 4.85 µM | 5.07 µM | 3.72 µM | 3.6 µM | 1.84 µM | 1.65 µM | 3.78 µM | 3.38 µM | 2.77 µM | 6.18 µM | 1.12 µM
4 | Cc1nc2sc3c(c2c(=O)[nH]1)CCCC3 | > 100 µM | > 100 µM | > 100 µM | > 100 µM | > 100 µM | > 100 µM | > 100 µM | > 100 µM | > 100 µM | > 100 µM | – | – | – | – | – | – | – | – | – | –
5 | CC1COC(C)(C)P(=O)(c2ccccc2)C1 (configuration not stated) | > 100 µM | > 100 µM | > 100 µM | – | > 100 µM | > 100 µM | > 100 µM | > 100 µM | > 100 µM | > 100 µM | – | – | – | – | – | – | – | – | – | –
6 | c1ccc2c(c1)c1c(c3ccccc32)CN2CCCC2C1 (configuration not stated) | > 100 µM | 15.8 µM | > 34.8 µM | > 100 µM | > 100 µM | 4.21 µM | 9.46 µM | 35.3 µM | > 43.4 µM | 12.1 µM | – | – | – | – | – | – | – | – | – | –
7 | O=S(=O)(Nc1ccc(F)cc1F)c1ccc(-c2cnc(C3CC3)o2)cc1 | > 73 µM | > 59.9 µM | 15.2 µM | > 65.3 µM | > 100 µM | 6.39 µM | 22 µM | 1.25 µM | > 100 µM | 2.08 µM | 1.44 µM | 0.376 µM | 0.381 µM | 0.562 µM | 0.211 µM | 0.397 µM | 0.588 µM | 0.219 µM | 2.71 µM | 0.223 µM
8 | S=c1[nH]c(=S)c2nnn(-c3ccccc3)c2[nH]1 | > 100 µM | > 100 µM | > 100 µM | > 100 µM | > 100 µM | > 100 µM | > 100 µM | > 100 µM | > 100 µM | – | – | – | – | – | – | – | – | – | – | –
9 | O=C(O)c1ccc(OCc2ccccc2)c(Cl)c1 | > 100 µM | > 100 µM | > 100 µM | > 100 µM | > 100 µM | > 100 µM | > 100 µM | > 100 µM | > 100 µM | > 100 µM | – | – | – | – | – | – | – | – | – | –
10 | O=C1c2ccccc2-c2c1c1ccccc1c(=O)n2CCCCl | > 100 µM | > 100 µM | > 100 µM | 19.1 µM | > 100 µM | – | 35.7 µM | 36.6 µM | – | 28.5 µM | 18.1 µM | 35.5 µM | 37.2 µM | 3.63 µM | 12.7 µM | – | 6.78 µM | 8.4 µM | – | 7.88 µM
11 | O=C(c1ccc(/C=C/c2n[nH]c3ccccc23)cc1)N1CCNCC1 | > 10 µM and 34.6 µM | 3.22 µM and 16.9 µM | 4.77 µM and 15.3 µM | > 10 µM and 9.11 µM | 3.58 µM and 21.5 µM | 4.45 µM and 22.3 µM | 3.26 µM and 12.2 µM | > 10 µM and 9.14 µM | > 10 µM and 26.1 µM | 8.87 µM and 21.5 µM | > 10 µM and 8.5 µM | 1.66 µM and 3.75 µM | 2.04 µM and 2.44 µM | 4.96 µM and 1.35 µM | 1.45 µM and 1.37 µM | 1.94 µM and 4.15 µM | 1.76 µM and 2.34 µM | 3.81 µM and 2.37 µM | > 10 µM and 2.51 µM | 2 µM and 7.83 µM
12 | NCCSc1nc(-c2ccccc2)c(-c2ccccc2)o1 | > 100 µM | > 100 µM | > 100 µM | > 100 µM | > 100 µM | – | > 100 µM | 61.4 µM | > 100 µM | > 100 µM | – | – | – | – | – | – | – | – | – | –
13 | COC(=O)[C@H]1C=C[C@@H](C)n2c(=O)c3cc4ccccc4cc3c(=O)n21 | > 100 µM | > 100 µM | – | > 100 µM | > 100 µM | > 100 µM | > 100 µM | > 100 µM | > 100 µM | > 100 µM | – | – | – | – | – | – | – | – | – | –
14 | COC(=O)/C=C1\CCC(C)O1 (configuration not stated) | > 100 µM | > 100 µM | > 100 µM | > 100 µM | > 100 µM | > 100 µM | > 100 µM | 94 µM | > 100 µM | – | – | – | – | – | – | – | – | – | – | –
15 | Cc1ccc(NC(=O)CSc2nnc(-c3ccc(N=Cc4ccc(Cl)cc4)cc3)o2)cc1 | > 100 µM | > 100 µM | > 100 µM | – | > 100 µM | > 100 µM | > 100 µM | > 100 µM | – | – | – | – | – | – | – | – | – | – | – | –
16 | O=Cc1ccc2c(c1-c1c(C=O)ccc3c1OCO3)OCO2 | > 100 µM | > 100 µM | > 100 µM | > 100 µM | > 100 µM | > 100 µM | – | > 100 µM | > 100 µM | > 100 µM | – | – | – | – | – | – | – | – | – | –
17 | CN1C(=O)/C(=C/c2c(Cl)n(C)c3ccccc23)c2ccccc21 | 6.03 µM | 2.8 µM | 17.8 µM | 2.77 µM | – | 10.2 µM | – | 3.62 µM | 3.25 µM | – | 2.11 µM | 2.81 µM and 1.32 µM | 4.37 µM and 5.57 µM | 3.3 µM and 1.43 µM | 3.15 µM | 0.44 µM | 4.79 µM | 4.51 µM and 1.96 µM | 3.61 µM and 1.85 µM | –
18 | COc1cc2c3c(n(CCCOC(=O)C(F)(F)F)c(=O)c2cc1OC)-c1cc2c(cc1C3=O)OCO2 | > 63.8 µM | – | > 35.1 µM | – | > 100 µM | – | 0.0371 µM | > 100 µM | 43.8 µM | 20.6 µM | 0.612 µM | < 0.0123 µM | – | < 0.01 µM | < 0.0289 µM | – | < 0.01 µM | 0.0726 µM | 0.14 µM | 0.375 µM
